Data taken from patent US20250282768A1 (Janssen Pharmaceutica NV, priority 2022, published 2025).

test system: p-IKKa levels in L363 (NIK translocated multiple myeloma) cells; assay: Assay 2: Effect of compounds on p-IKKa levels in L363 (NIK translocated multiple myeloma) cells; assay type: cell-based; settings: Homo sapiens, L-363, 6 h, read-out: Assay 2 IC50 (nM), p-IKKa (Ser 176/180) in BAFF stimulated L363 cells with MG132, 6 h; average if tested more than once
How it was run: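 L363 cells incubated overnight ± 250 ng/ml BAFF, then 6 h at 37 °C with compound (0.3% DMSO) ± 10 μM MG132. Lysates assayed for p-IKKa (Ser176/180) by AlphaLISA SureFire. IC50 from sigmoidal fit of % inhibition normalized to BAFF/MG132-stimulated and unstimulated controls.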

Row | Compound | IC50 [nM]
1 | CCn1ncc(Nc2nccc(-c3cccc(-c4cc([C@]5(O)CCN(C)C5=O)on4)n3)n2)c1OC [Example 220, (R)-3-(3-(6-(2-((1-Ethyl-5-methoxy-1H-pyrazol-4-yl)amino)pyrimidin-4-yl)pyridin-2-yl)isoxazol-5-yl)-3-hydroxy-1-methylpyrrolidin-2-one] | 50 to 500
2 | CNC(=O)c1cnc(C)c(Nc2nccc(-c3cccc(-c4cc([C@]5(O)CCN(C)C5=O)on4)n3)n2)c1 [Example 473, (R)-5-((4-(6-(5-(3-Hydroxy-1-methyl-2-oxopyrrolidin-3-yl)isoxazol-3-yl)pyridin-2-yl)pyrimidin-2-yl)amino)-N,6-dimethylnicotinamide] | 50 to 500
3 | CN1CC[C@@](O)(c2cc(-c3cccc(-c4ccnc(Nc5cnn(C)c5)n4)n3)on2)C1=O [Example 30, (R)-3-Hydroxy-1-methyl-3-(5-(6-(2-((1-methyl-1H-pyrazol-4-yl)amino)pyrimidin-4-yl)pyridin-2-yl)isoxazol-3-yl)pyrrolidin-2-one] | < 50
4 | Cc1cc(-c2cc([C@]3(O)CCN(C)C3=O)on2)nc(-c2ccnc(Nc3ccn(C)n3)n2)c1 [Example 100, (R)-3-Hydroxy-1-methyl-3-(3-(4-methyl-6-(2-((1-methyl-1H-pyrazol-3-yl)amino)pyrimidin-4-yl)pyridin-2-yl)isoxazol-5-yl)pyrrolidin-2-one] | < 50
5 | CN1CC[C@@](O)(c2cc(-c3cccc(-c4ccnc(Nc5cnn6c5CNCC6)n4)c3)no2)C1=O [Example 419, (R)-3-Hydroxy-1-methyl-3-(3-(3-(2-((4,5,6,7-tetrahydropyrazolo[1,5-a]pyrazin-3-yl)amino)pyrimidin-4-yl)phenyl)isoxazol-5-yl)pyrrolidin-2-one] | > 500
6 | CC(C)[C@@H](Nc1nccc(-c2cccc(-c3cc([C@]4(O)CCN(C)C4=O)on3)n2)n1)c1cnn(C)c1 (single isomer, unassigned) [Example 162] | > 500
7 | CN1CC[C@@](O)(c2cc(-c3cccc(-c4ccnc(Nc5cn(C)nc5OCC(F)F)n4)n3)no2)C1=O [Example 54, (R)-3-(3-(6-(2-((3-(2,2-Difluoroethoxy)-1-methyl-1H-pyrazol-4-yl)amino)pyrimidin-4-yl)pyridin-2-yl)isoxazol-5-yl)-3-hydroxy-1-methylpyrrolidin-2-one] | < 50
8 | Cc1noc(C)c1Nc1nccc(-c2cccc(-c3cc([C@]4(O)CCN(C)C4=O)on3)n2)n1 [Example 236, (R)-3-(3-(6-(2-((3,5-Dimethylisoxazol-4-yl)amino)pyrimidin-4-yl)pyridin-2-yl)isoxazol-5-yl)-3-hydroxy-1-methylpyrrolidin-2-one] | 50 to 500
9 | CN1CC[C@@](O)(c2cc(-c3cccc(-c4ccnc(Nc5cn[nH]c5)n4)n3)no2)C1=O [Example 40, (R)-3-(3-(6-(2-((1H-Pyrazol-4-yl)amino)pyrimidin-4-yl)pyridin-2-yl)isoxazol-5-yl)-3-hydroxy-1-methylpyrrolidin-2-one] | < 50
10 | CN(C)C(=O)Cn1ccc(Nc2nccc(-c3cccc(-c4cc([C@]5(O)CCN(C)C5=O)on4)n3)n2)n1 [Example 277, (R)-2-(3-((4-(6-(5-(3-Hydroxy-1-methyl-2-oxopyrrolidin-3-yl)isoxazol-3-yl)pyridin-2-yl)pyrimidin-2-yl)amino)-1H-pyrazol-1-yl)-N,N-dimethylacetamide] | 50 to 500
11 | CN1CC[C@@H](n2cc(Nc3nccc(-c4cccc(-c5cc([C@]6(O)CCN(C)C6=O)on5)n4)n3)cn2)[C@H](F)C1 (single isomer, unassigned) [Example 202] | < 50
12 | CC(Nc1nccc(-c2cccc(-c3cc([C@]4(O)CCN(C)C4=O)on3)n2)n1)c1ncccn1 (stereo partly drawn) [Example 377, (3R)-3-Hydroxy-1-methyl-3-(3-(6-(2-((1-(pyrimidin-2-yl)ethyl)amino)pyrimidin-4-yl)pyridin-2-yl)isoxazol-5-yl)pyrrolidin-2-one] | > 500
